# According to article PMC12534982 (Journal of Experimental & Clinical Cancer Research : CR, 2025):
# Columns and labels:
# colorectal cancer cells [1] = experiment: Intracellular ATP levels (CellTiter-Glo); format: cell-based, human; details: 25 µM
# Experimental: Luminescence readings were recorded with a Victor Multilabel Plate Reader (PerkinElmer Life Sciences, Massachusetts, USA).
# colorectal cancer cells [2] = experiment: Western blot; format: cell-based, human
# Experimental: Cancer cells (2.2 × 10^6) were cultured in 100-mm Petri dishes and treated with DMSO or NK-A 17E-233I (25 µM) for 48 h. Cells were harvested by scrapping into 2 × Laemmli buffer (4% SDS, 20% glycerol, 125 mM Tris–HCl, pH 6.8) and heated at 100 °C for 5 min. A 4 × Laemmli sample buffer containing β-mercaptoethanol was added to the cell lysates. The proteins were separated using sodium dodecyl sulfate polyacrylamide gel electrophoresis (SDS-PAGE) and subsequently transferred to polyvinylidene fluoride (PVDF) membranes (#88518; Thermo Fisher Scientific) following the manufacturer’s protocols. The membranes were blocked at room temperature for 1 h with 5% dried skimmed milk in Tris-buffered saline with Tween-20 (TBS-T) (20 mM Tris–HCl, pH 7.5, 150 mM NaCl, 0.1% Tween-20), and the blots were incubated with the corresponding antibodies at a dilution of 1:1000–1:3000 in a blocking buffer at 4 °C overnight.
# Primary antibodies utilized in this study included: anti-human DHODH (#SC-166348; Santa Cruz), anti–CHK1-pS345 (#2348; Cell Signaling), anti-POLD2 (#29765–1-AP; Proteintech), anti-POLD1 (#15646–1-AP; Proteintech), anti-p53 (#SC-126; Santa Cruz), anti-KRAS, clone 4F3 (#SAB1404011; Sigma-Aldrich), anti-GAPDH (#ab9489; Abcam), anti–α-tubulin (#T9026; Sigma-Aldrich), anti-BAX (#SC-23959; Santa Cruz), anti-cytochrome c (#66264–1-IG; Proteintech), anti-DR5 (#3696; Cell Signaling, dilution 1:500), anti–caspase-8 (#SC-56070; Santa Cruz), and anti–caspase-3 (#9662; Cell Signaling, dilution 1:500). The membranes were incubated at room temperature for 1 h with secondary antibodies (diluted 1:3000–5000), either anti-rabbit (#A0545; Sigma-Aldrich) or anti-mouse IgG-horseradish peroxidase-conjugated (#A9044; Sigma-Aldrich), in TBS-T. The images were analyzed and quantified using ImageStudio software (LI-COR) or ImageQuant 10.2 TL analysis software (Cytiva Life Sciences).
# colorectal cancer cells [3] = experiment: Flow cytometry-based cell cycle analysis; design: species or system human
# Experimental: Cancer cells (3 × 10^4) were cultured in 48-well plates and treated with DMSO or NK-A 17E-233I (25 µM) for 24 h. Following treatment, all wells were washed with PBS (#P4417; Sigma-Aldrich), and the cells were collected in Eppendorf tubes. The cells were harvested using 0.25% trypsin (#25200056; ThermoScientific) and 0.02% EDTA (1:1) (#17892; ThermoFisher Scientific) for 2 min, followed by the addition of DMEM. The tubes were then centrifuged at 500 × g for 5 min. The supernatant was discarded, and the pellets were fixed in 70% cold ethanol and stored at -20 °C for at least 1 h. The pellets were resuspended in 1 mL PBS and centrifuged at 500 × g at 4 °C for 5 min. The supernatant was discarded once again, and the pellets were subsequently reconstituted in a solution containing propidium iodide (PI; #25,535–16-4, Merck) and RNase (#N8080119, Applied Biosystems), followed by storage at 4 °C overnight. Cell cycle analysis was conducted using a CytoFLEX flow cytometer (Beckman Coulter; 405 nm laser). Cells were gated based on size and granularity on a forward scatter (FSC)/side scatter (SSC) plot, with cell debris excluded from the analysis. Mean fluorescence intensity from 1 × 10^4 cells was recorded. Data analysis was conducted using FlowJo software v10.8.1 (BD Life Sciences).
# colorectal cancer cells [4] = experiment: Annexin V-FITC/PI double staining; format: cell-based, human; details: 25 µM
# Experimental: Cells were harvested as described in the flow cytometry-based cell cycle analysis section. The supernatant was discarded, and the cells were resuspended in 100 μL of cold Annexin buffer (pH 7.4) composed of 18 mL distilled water, 5.5 mg CaCl2, 164 mg NaCl, and 2 mL of 100 mM HEPES. A 1:1 mixture of Annexin V (#130–097-928; Miltenyi Biotec) and propidium iodide (PI, 1 mg/mL) was added to all tubes and incubated in the dark at room temperature for 20 min. Annexin buffer was added, and the samples were analyzed using a CytoFLEX within 1 h. CytExpert and FlowJo software were utilized for data acquisition and analysis.
# SW620 cells = experiment: Complex I- and complex II-dependent respiration (permeabilized cells); format: cell-based, human; details: 25 µM, 24 h
# Experimental: Following treatment, cells were detached using trypsin–EDTA, washed with PBS, and resuspended in MiR05 media (composed of 110 mM sucrose, 60 mM potassium-lactobionate, 0.5 mM EGTA, 3 mM MgCl2·6H2O, 20 mM taurine, 10 mM KH2PO4, 20 mM HEPES adjusted to pH 7.1 with KOH at 37 °C, and 1 g/L BSA) at a concentration of 5 × 10^5 cells/mL. The cells were then transferred into 2 mL Oxygraph chambers for real-time measurement of OCR. Initial permeabilization was achieved using 7 μg of digitonin, followed by the sequential addition of substrates and inhibitors: 5 mM ADP, 2 mM malate, 10 μM cytochrome c, 5 mM pyruvate, 10 mM glutamate, 10 mM succinate, 0.5 μM rotenone, and 2.5 μM antimycin A. Mitochondrial membrane integrity was confirmed through the addition of cytochrome c (10 μM), with observed changes in OCR remaining below 10%. Complex I-mediated respiration was evaluated following the addition of complex I substrates (malate/pyruvate/glutamate), while complex II-mediated respiration was assessed in the presence of the complex II substrate (succinate) and the complex I inhibitor (rotenone). Residual oxygen consumption after the addition of antimycin A was subtracted from all the results to yield mitochondria-specific rates. […] Oxygen consumption rates were expressed as picomoles (pmol) per second per million cells (Mill) and normalized to the mitochondrial copy number in each sample.
smiles,measurement,setting,value
COc1cc(C)c(Oc2cc(C)cc(O)c2O)c(O)c1 [NK-A 17E-233I],ATP production / proliferation with non-physiological uridine,"colorectal cancer cells [1]; 200 µM uridine, various time points",did not impact the production of ATP or cancer cell proliferation
same,levels of ATP,colorectal cancer cells [1]; up to 24 h,reduced
same,expression of wild-type p53 protein,colorectal cancer cells [2]; 25 µM,without influencing the expression
same,phosphorylation of CHK1 (pS345),colorectal cancer cells [2]; 25 µM,confirmed the phosphorylation of CHK1
same,expression levels of DHODH,"colorectal cancer cells [2]; 25 µM, 48 h",did not observe a change
same,"levels of apoptotic markers (DR5, caspase-8, Bax, cytochrome c, caspase-3)","colorectal cancer cells [2]; 25 µM, 48 h",increased levels
same,protein expression levels of POLD1 and POLD2,"colorectal cancer cells [2]; 25 µM, 48 h",reductions
same,expression of KRAS G13D mutant protein,colorectal cancer cells [2]; HCT116 cells,reduced
same,levels of p53-mutant protein,"colorectal cancer cells [2]; NK-A 17E-233I 25 µM, Brequinar",reduced
same,expression of KRAS G12V mutant protein,colorectal cancer cells [2]; SW620 cells,reduced
same,cell cycle distribution,colorectal cancer cells [3]; 25 µM,arrest of colorectal cancer cells in the S-phase and an increase in sub-G1 cell populations
same,cell cycle after washout,"colorectal cancer cells [3]; washout 12 h, NK-A 17E-233I 25 µM, HU 1 mM",remained arrested and/or underwent cell death
same,late-apoptotic cells (Annexin V-FITC),colorectal cancer cells [4]; 48 h,significantly increased
same,apoptosis with pan-caspase inhibitor Z-VAD-FMK,"colorectal cancer cells [4]; Z-VAD-FMK 10 µM, 24 h",abolished its activity
same,OCR supported by complex I and II substrates,SW620 cells,did not alter
